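The compound was tested at five concentrations on cells cultured in 96-well plates, with a 48-hour exposure period. Here, GI50 denotes the concentration required for 50% inhibition of growth. TGI: total growth inhibition.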
Experiments:
Assay in all cases: NCI anticancer screen, dose series, 48 h
UO-31 renal = system: UO-31 renal
MDA-MB-231 breast = system: MDA-MB-231 breast
HS 578T breast = system: HS 578T breast
ACHN renal = system: ACHN renal
T-47D breast = system: T-47D breast
SR leukemia = system: SR leukemia
SNB-19 CNS = system: SNB-19 CNS
EKVX NSCLC = system: EKVX NSCLC
HOP-62 NSCLC = system: HOP-62 NSCLC
NCI/ADR-RES ovarian = system: NCI/ADR-RES ovarian
RPMI-8226 leukemia = system: RPMI-8226 leukemia
SF-539 CNS = system: SF-539 CNS
HCT-116 colon = system: HCT-116 colon
CCRF-CEM leukemia = system: CCRF-CEM leukemia
SW-620 colon = system: SW-620 colon
HT29 colon = system: HT29 colon
NCI-H522 lung = system: NCI-H522 lung
SNB-75 CNS = system: SNB-75 CNS
TK-10 renal = system: TK-10 renal
HOP-92 NSCLC = system: HOP-92 NSCLC
SK-MEL-5 melanoma = system: SK-MEL-5 melanoma
SK-OV-3 ovarian = system: SK-OV-3 ovarian
COLO 205 colon = system: COLO 205 colon
NCI-H23 lung = system: NCI-H23 lung
MOLT-4 leukemia = system: MOLT-4 leukemia
BT-549 breast = system: BT-549 breast
SN12C renal = system: SN12C renal
OVCAR-8 ovarian = system: OVCAR-8 ovarian
RXF 393 renal = system: RXF 393 renal
SK-MEL-2 melanoma = system: SK-MEL-2 melanoma
HCC-2998 colon = system: HCC-2998 colon
OVCAR-3 ovarian = system: OVCAR-3 ovarian
MDA-MB-435 = system: MDA-MB-435
SF-295 CNS = system: SF-295 CNS
IGROV1 ovarian = system: IGROV1 ovarian
HCT-15 colon = system: HCT-15 colon
SF-268 CNS = system: SF-268 CNS
UACC-257 melanoma = system: UACC-257 melanoma
K-562 leukemia = system: K-562 leukemia
LOX IMVI melanoma = system: LOX IMVI melanoma
OVCAR-5 ovarian = system: OVCAR-5 ovarian
M14 melanoma = system: M14 melanoma
CAKI-1 renal = system: CAKI-1 renal
KM12 colon = system: KM12 colon
NCI-H226 lung = system: NCI-H226 lung
MCF7 breast = system: MCF7 breast
HL-60(TB) leukemia = system: HL-60(TB) leukemia
SK-MEL-28 melanoma = system: SK-MEL-28 melanoma
UACC-62 melanoma = system: UACC-62 melanoma
786-0 renal = system: 786-0 renal
MALME-3M melanoma = system: MALME-3M melanoma
A498 renal = system: A498 renal
NCI-H460 lung = system: NCI-H460 lung
U251 CNS = system: U251 CNS
A549 NSCLC = system: A549 NSCLC
DU-145 prostate = system: DU-145 prostate
OVCAR-4 ovarian = system: OVCAR-4 ovarian
PC-3 prostate = system: PC-3 prostate

CCN1C(=O)N(c2ccccc2)C2NC(=S)N(/N=C/C=C/c3ccccc3)C21 (stereo not given)
GI50 (UO-31 renal): 499 nM
TGI (UO-31 renal): > 100000 nM
GI50 (MDA-MB-231 breast): 715 nM
TGI (MDA-MB-231 breast): > 100000 nM
GI50 (HS 578T breast): 339 nM
TGI (HS 578T breast): > 100000 nM
GI50 (ACHN renal): 763 nM
TGI (ACHN renal): > 100000 nM
GI50 (T-47D breast): 405 nM
TGI (T-47D breast): > 100000 nM
GI50 (SR leukemia): 114 nM
TGI (SR leukemia): > 100000 nM
GI50 (SNB-19 CNS): 472 nM
TGI (SNB-19 CNS): > 100000 nM
GI50 (EKVX NSCLC): 619 nM
TGI (EKVX NSCLC): > 100000 nM
GI50 (HOP-62 NSCLC): 400 nM
TGI (HOP-62 NSCLC): > 100000 nM
GI50 (NCI/ADR-RES ovarian): 288 nM
TGI (NCI/ADR-RES ovarian): > 100000 nM
GI50 (RPMI-8226 leukemia): 451 nM
TGI (RPMI-8226 leukemia): > 100000 nM
GI50 (SF-539 CNS): 246 nM
TGI (SF-539 CNS): 854 nM
GI50 (HCT-116 colon): 297 nM
TGI (HCT-116 colon): > 100000 nM
GI50 (CCRF-CEM leukemia): 350 nM
TGI (CCRF-CEM leukemia): > 100000 nM
GI50 (SW-620 colon): 380 nM
TGI (SW-620 colon): > 100000 nM
GI50 (HT29 colon): 295 nM
TGI (HT29 colon): > 100000 nM
GI50 (NCI-H522 lung): 133 nM
TGI (NCI-H522 lung): 6600 nM
GI50 (SNB-75 CNS): > 100000 nM
TGI (SNB-75 CNS): > 100000 nM
GI50 (TK-10 renal): 825 nM
TGI (TK-10 renal): > 100000 nM
GI50 (HOP-92 NSCLC): 4660 nM
TGI (HOP-92 NSCLC): > 100000 nM
GI50 (SK-MEL-5 melanoma): 463 nM
TGI (SK-MEL-5 melanoma): > 100000 nM
GI50 (SK-OV-3 ovarian): 421 nM
TGI (SK-OV-3 ovarian): > 100000 nM
GI50 (COLO 205 colon): 344 nM
TGI (COLO 205 colon): 8700 nM
GI50 (NCI-H23 lung): 569 nM
TGI (NCI-H23 lung): > 100000 nM
GI50 (MOLT-4 leukemia): 380 nM
TGI (MOLT-4 leukemia): > 100000 nM
GI50 (BT-549 breast): 643 nM
TGI (BT-549 breast): > 24700 nM
GI50 (SN12C renal): 742 nM
TGI (SN12C renal): > 100000 nM
GI50 (OVCAR-8 ovarian): 429 nM
TGI (OVCAR-8 ovarian): > 100000 nM
GI50 (RXF 393 renal): 345 nM
TGI (RXF 393 renal): > 100000 nM
GI50 (SK-MEL-2 melanoma): 345 nM
TGI (SK-MEL-2 melanoma): > 94200 nM
GI50 (HCC-2998 colon): 399 nM
TGI (HCC-2998 colon): > 100000 nM
GI50 (OVCAR-3 ovarian): 263 nM
GI50 (MDA-MB-435): 31.4 nM
TGI (MDA-MB-435): 216 nM
GI50 (SF-295 CNS): 276 nM
TGI (SF-295 CNS): > 100000 nM
GI50 (IGROV1 ovarian): 599 nM
TGI (IGROV1 ovarian): > 58200 nM
GI50 (HCT-15 colon): 293 nM
TGI (HCT-15 colon): > 100000 nM
GI50 (SF-268 CNS): 1020 nM
TGI (SF-268 CNS): > 100000 nM
GI50 (UACC-257 melanoma): 25000 nM
TGI (UACC-257 melanoma): > 100000 nM
GI50 (K-562 leukemia): 155 nM
TGI (K-562 leukemia): > 100000 nM
GI50 (LOX IMVI melanoma): 647 nM
TGI (LOX IMVI melanoma): > 100000 nM
GI50 (OVCAR-5 ovarian): 631 nM
TGI (OVCAR-5 ovarian): > 100000 nM
GI50 (M14 melanoma): 239 nM
TGI (M14 melanoma): > 100000 nM
GI50 (CAKI-1 renal): 269 nM
TGI (CAKI-1 renal): > 100000 nM
GI50 (KM12 colon): 358 nM
TGI (KM12 colon): > 100000 nM
GI50 (NCI-H226 lung): 2790 nM
TGI (NCI-H226 lung): > 100000 nM
GI50 (MCF7 breast): 193 nM
TGI (MCF7 breast): > 100000 nM
GI50 (HL-60(TB) leukemia): 227 nM
TGI (HL-60(TB) leukemia): 745 nM
GI50 (SK-MEL-28 melanoma): 1740 nM
TGI (SK-MEL-28 melanoma): > 100000 nM
GI50 (UACC-62 melanoma): 197 nM
TGI (UACC-62 melanoma): > 100000 nM
GI50 (786-0 renal): 521 nM
TGI (786-0 renal): > 100000 nM
GI50 (MALME-3M melanoma): 2830 nM
TGI (MALME-3M melanoma): > 100000 nM
GI50 (A498 renal): 105 nM
TGI (A498 renal): 699 nM
GI50 (NCI-H460 lung): 377 nM
TGI (NCI-H460 lung): > 36100 nM
GI50 (U251 CNS): 440 nM
TGI (U251 CNS): > 100000 nM
GI50 (A549 NSCLC): 417 nM
TGI (A549 NSCLC): > 100000 nM
GI50 (DU-145 prostate): 444 nM
TGI (DU-145 prostate): > 100000 nM
GI50 (OVCAR-4 ovarian): 4680 nM
TGI (OVCAR-4 ovarian): > 100000 nM
GI50 (PC-3 prostate): 394 nM
TGI (PC-3 prostate): > 100000 nM

Reference: PubChem BioAssay (NCI)
